Experiments:
Type in all cases: in vivo
[1] = system: substantia nigra p-α-s; assay: Substantia nigra p-α-s protein expression in MPTP Parkinson's disease model mouse (immunofluorescence); conditions: percentage of mean intensity of blank control group, gavage 21 days after MPTP modeling
Description: (§1) Neurotoxins can be used to establish PD animal models. Currently, 1-methyl-4-phenyl-1,2,3,6-tetrahydropyridine (MPTP) is the sole synthetic toxin which is recognized to induce PD symptoms in human and non-human primates and in mice. Using MPTP subacute modeling method, C57BL/6J male mice were intraperitoneally injected with MPTP 30 mg/kg, once a day for 5 consecutive days. The experiment animals were divided into blank control group, MPTP model group, and compound treatment group. For the […] compound treatment group, the compound was administrated by gavage for 21 consecutive days after the completion of modeling; for the MPTP model group, the normal saline was administrated by gavage for 21 consecutive days after the completion of modeling; and for the blank control group, the normal saline was first intraperitoneally injected for 5 days, and then administrated by gavage for 21 days.
Alpha-synuclein is an “unfolded protein” in its natural state. It exists in a monomeric form, and participates in the physiological functions such as the release of neurotransmitters, the establishment of synaptic junctions, and the regulation of synaptic plasticity. Under pathological conditions, more than 90% of alpha-synuclein is phosphorylated at serine of position 129 and converted into phosphorylated alpha-synuclein (p-α-s), thereby forming Lewy bodies. The formation of Lewy bodies is one of the main pathological manifestations and pathological mechanisms for Parkinson's disease, and plays an important role in the formation and development of PD. The detection of the p-α-s expression in the midbrain and substantia nigra of PD model mice can evaluate the neuroprotective activity of the compound.
Half of experiment mice in each group were taken to separate the midbrain after perfusion and fixation. The tissue was trimmed, and the substantia nigra-striatum area was taken to prepare paraffin sections. The p-α-s immunofluorescence staining was performed in the brain sections of mice in each group. […] The experiment included blank control group, MPTP model group, positive control group (caffeic acid phenethyl ester, CAPE), prototype control group (styryl sulfone compounds 3B, 3C, 3D, and 3G, whose structures are shown as above), and target compound group.

[2] = system: midbrain TH; assay: Midbrain TH expression in MPTP Parkinson's disease model mouse (western-blotting); conditions: midbrain total protein, GAPDH internal reference, gavage 21 days after MPTP modeling
Description: as §1
(§2) The main cause of PD lies in the pathological changes in the substantia nigra-striatum projection system of the brain and the progressive degeneration and loss of dopaminergic neurons. Tyrosine hydroxylase (TH) is the first enzyme in the biosynthesis of catecholamine neurotransmitters, as well as the first rate-limiting enzyme in the dopamine synthesis. It plays an important role in the synthesis and metabolism of the neurotransmitter DA. The TH in PD animal models and patients has a wide range of abnormal changes, from the gene expression to the enzyme protein content and enzyme activity. The detection of the TH expression in the midbrain and substantia nigra of PD model mice can be used to evaluate the neuroprotective activity of the compound.
Half of experiment mice in each group were taken to extract the total midbrain protein, and the change in the midbrain TH was determined by western-blotting using GAPDH as the internal reference. The experiment included blank control group, MPTP model group, positive control group (caffeic acid phenethyl ester, CAPE), prototype control group (styryl sulfone compounds 3B, 3C, 3D, and 3G, whose structures are shown as above), and target compound group.

[3] = system: substantia nigra TH; assay: Substantia nigra TH expression in MPTP Parkinson's disease model mouse (immunofluorescence); conditions: percentage of mean intensity of blank control group, gavage 21 days after MPTP modeling
Description: as §1, §2
Half of experiment mice in each group were taken to separate the midbrain after perfusion and fixation. The tissue was trimmed, and the substantia nigra-striatum area was taken to prepare paraffin sections. The TH immunofluorescence staining was performed in the brain sections of mice in each group. […] The experiment included blank control group, MPTP model group, positive control group (caffeic acid phenethyl ester, CAPE), prototype control group (styryl sulfone compounds 3B, 3C, 3D, and 3G, whose structures are shown as above), and target compound group.

[4] = system: midbrain CD11b; assay: Midbrain CD11b protein expression in MPTP Parkinson's disease model mouse (western-blotting); conditions: for Expression (CD11b/GAPDH): midbrain, MPTP Parkinson's disease model mouse, western-blotting
Description: as §1
(§3) Neuron-glial cell network homeostasis disorder is an important factor for the selective and progressive death of substantia nigra dopaminergic neurons in PD. In the neurotoxic effect of MPTP, the excessive activations of microglial cells and astrocytes produce a variety of inflammatory cytokines and reactive oxygen species (ROS). These inflammatory factors and ROS amplify their respective toxicities and mediate malignant feedback loop, causing a cascade inflammation response and aggravating the pathological process of PD. CD11b and GFAP are the marker proteins for activations of microglial cells and astrocytes, respectively. Therefore, the effect of the target compounds on the activations of the microglial cells and astrocytes in the substantia nigra, hippocampus, and midbrain areas of MPTP-induced PD mice can be investigated, to explore the mechanism of the anti-PD effect of the target compounds by inhibiting the neuroinflammation.
[…] The experiment included blank control group, MPTP model group, positive control group (caffeic acid phenethyl ester, CAPE), prototype control group (styryl sulfone compounds 3B, 3C, 3D), and 3G, whose structures are shown as above), and target compound group.

[5] = system: substantia nigra GFAP; assay: Number of substantia nigra astrocytes with GFAP positive expression in MPTP Parkinson's disease model mouse (immunohistochemistry); conditions: for Positive cell number (astrocytes with GFAP positive expression): substantia nigra, MPTP Parkinson's disease model mouse, immunohistochemistry
Description: as §1, §3
Half of experiment mice in each group were taken to separate the midbrain after perfusion and fixation. The tissue was trimmed, and the substantia nigra area was taken to prepare paraffin sections. The GFAP immunohistochemical staining was performed for the statistics of the change in the number of astrocytes with GFAP positive expression. The experiment included blank control group, MPTP model group, positive control group (caffeic acid phenethyl ester, CAPE), prototype control group (styryl sulfone compounds 3B, 3C, 3D, and 3G, whose structures are shown as above), and target compound group.

[6] = system: GCLC; assay: Midbrain GCLC expression in MPTP Parkinson's disease model mouse (western blot); conditions: for Expression (GCLC/GAPDH): midbrain, MPTP Parkinson's disease model mouse, western blot
Description: as §1
Oxidative stress is an important pathogenic mechanism of PD. Dopaminergic neurons are more sensitive to oxidative stress and are more susceptible to oxidative stress damage. Glutathione (GSH) is an important antioxidant substance in the cell, and glutamate cysteine ligase (GCL) is the rate-limiting enzyme for GSH synthesis, which is composed of catalytic subunit (GCLC) and regulatory subunit (GCLM). The increase of GCLC expression can promote the synthesis of GSH and enhance the ability of tissue cells against oxidative stress. GCL, a phase II enzyme, plays an important protective role by catalyzing the conversion of free radicals into non-toxic products and increasing their water solubility to facilitate the elimination of free radicals, and maintain the redox balance in the body. It plays an important role in the process of protecting cells against oxidative stress damage. The activation of p38 protein phosphorylation has a negative regulatory effect on phase II enzymes. […] Using GCLC as an indicator, the inhibitory effect of the target compounds on MPTP-induced oxidative stress damage in PD mice can be investigated.
GCLC is expressed in astrocytes, microglial cells, and neurons. The total proteins of the midbrain tissue of mice in each experiment group were extracted, to determine the expression of phase II enzyme GCLC in the midbrain of mice by western blot using GAPDH as the internal reference. The experiment included blank control group, MPTP model group, positive control group (caffeic acid phenethyl ester, CAPE), prototype control group (styryl sulfone compounds 3B, 3C, 3D), and 3G, whose structures are shown as above), and target compound group.

Row | SMILES | Expression (Immunofluorescence intensity %) [1] [%] | Expression (TH/GAPDH) [2] | Expression (Immunofluorescence intensity %) [3] [%] | midbrain CD11b protein expression compared with the styryl sulfone prototype compounds [4] | Expression (CD11b/GAPDH) [4] | number of substantia nigra astrocytes with GFAP positive expression compared with the styryl sulfone prototype compounds [5] | Positive cell number (astrocytes with GFAP positive expression) [5] | midbrain GCLC expression compared with the styryl sulfone prototype compounds [6] | Expression (GCLC/GAPDH) [6]
1 | CCN(CC)C(=O)Oc1ccc(/C=C/S(=O)(=O)Cc2ccc(Cl)cc2)cc1OC(=O)N(CC)CC [Compound D1-1, (E)-4-{2-[(4-chlorophenyl)mesyl]ethenyl}-1,2-phenylenebis(diethylcarbamate)] | 42.52 ± 5.43 | 1.27 ± 0.05 | 99.19 ± 3.67 | equivalent or lower | 0.33 ± 0.05 | significantly lower | 64 ± 3 | significantly higher | 1.29 ± 0.05
2 | CC(=O)Oc1ccc(/C=C/S(=O)(=O)Cc2c(F)c(F)c(F)c(F)c2F)cc1OC(=O)NC(=O)c1ccc([N+](=O)[O-])c(C)c1 [Compound D5-4, (E)-2-[N-(3-methyl-4-nitrobenzoyl)carbamoyloxy]-4-{2-[(perfluorophenyl)mesyl]ethenyl}phenyl acetate] | 186.19 ± 11.02 | 1.19 ± 0.05 | 99.86 ± 6.27 | – | 1.11 ± 0.10 | – | 97 ± 5 | – | 0.97 ± 0.07
3 | CNC(=O)Oc1ccc(/C=C/S(=O)(=O)CC(Cl)c2ccc(Cl)c([N+](=O)[O-])c2)cc1O (stereo not drawn) [Compound E2-2, (E)-4-{2-[2-chloro-2-(4-chloro-3-nitrophenyl)ethylsulfonyl]ethenyl}-2-hydroxyphenyl-N-methylcarbamate] | 128.26 ± 11.62 | 0.97 ± 0.03 | 93.12 ± 4.56 | – | 1.17 ± 0.06 | – | 102 ± 5 | – | 1.48 ± 0.11
4 | CCN(CC)C(=O)Oc1ccc(/C=C/S(=O)(=O)Cc2ccc(C(C)(C)C)cc2)cc1OC(=O)N(CC)CC [Compound G1-1, (E)-4-{2-[(4-t-butylphenyl)mesyl]ethenyl}-1,2-phenylenebis(diethylcarbamate)] | 77.36 ± 9.15 | 0.70 ± 0.03 | 77.13 ± 7.40 | equivalent or lower | 0.50 ± 0.06 | significantly lower | 76 ± 4 | significantly higher | 1.05 ± 0.04
5 | CCOC(CS(=O)(=O)/C=C/c1ccc(OC(C)=O)c(OC(=O)Nc2ccc(NC)cc2)c1)C(OCC)c1ccc(OCc2ccccc2)c(O)c1 (stereo not drawn) [Compound H2-4, (E)-4-{2-[3-(4-benzyloxy-3-hydroxyphenyl)-2,3-diethoxypropyl]sulfonylethenyl}-2-[N-(4-methylaminophenyl)carbamoyloxy]phenyl acetate] | 136.53 ± 8.94 | 1.02 ± 0.04 | 95.20 ± 6.06 | – | 0.69 ± 0.04 | – | 93 ± 6 | – | 1.21 ± 0.08
6 | COCCN(C)C(=O)Oc1cc(/C=C/S(=O)(=O)CCc2cccc(-c3ccc(C)o3)c2)ccc1OC(C)=O [Compound J1-4, (E)-2-[N-(2-methoxyethyl)-N-methylcarbamoyloxy]-4-{2-[3-(5-methylfur-2-yl)phenylethylsulfonyl]ethenyl}phenyl acetate] | 116.95 ± 8.06 | 0.89 ± 0.04 | 88.65 ± 5.41 | – | 0.75 ± 0.06 | – | 77 ± 4 | – | 1.24 ± 0.10
7 | CC(Br)C(Br)COc1cc(/C=C/S(=O)(=O)CCc2ccc(OCC(F)(F)F)cc2)ccc1OC(=O)Nc1ccsc1 (stereo not drawn) [Compound K1-3, (E)-2-(2,3-dibromobutoxy)-4-{2-[4-(2,2,2-trifluoroethoxy)phenylethylsulfonyl]ethenyl}phenyl-N-(thien-3-yl)carbamate] | 90.04 ± 7.43 | 0.91 ± 0.04 | 87.28 ± 4.11 | – | 1.01 ± 0.08 | – | 86 ± 5 | – | 1.13 ± 0.08
